Data as given in US20230257351A1, “SUBSTITUTED N-[…] HAVING P2X4 RECEPTOR ANTAGONISTIC ACTIVITY” (Bayer Aktiengesellschaft, priority 2020, published 2023).

Key:
[1] = tested on: intraplantar Complete Freund's Adjuvant (CFA)-induced acute inflammatory pain; experiment: CFA Inflammation Model in Rats with Pain Behaviour Read Out; assay type: in vivo, male Sprague Dawley rats; conditions: for PWT 2 hour-post drug: mean PWT
Procedure: Compound was tested in the model of intraplantar Complete Freund's Adjuvant (CFA)-induced acute (48-hours setting) inflammatory pain in male Sprague Dawley rats. Briefly, 25 μl of CFA at 1 mg/ml was injected into the plantar surface of one hind paw. Mechanical hyperalgesia was measured using the Pressure Application Measurement apparatus (Ugo Basile, Gemonio, Italy). A linearly increasing pressure was applied to an area of approximately 50 mm^2 of the plantar side of the hind paw until a behavioural response (paw withdrawal) was observed or until the pressure reached 1000 grams of force (gf). The pressure at which the behavioural response occurred was recorded as the “Paw Withdrawal Threshold” (PWT). Both CFA-injected and contralateral PWTs were determined for each rat, in each treatment group and at each time point of the studies. The measurements were performed blinded. […] Compound or vehicle (10% DMSO, 40% Solutol, 50% water for injection, vol/vol) were dosed via oral route (p.o.) once daily (QD) or twice daily (BID) during 3 days, starting before CFA injection. Data were expressed as the mean PWT for each treatment group and at each time point. PWT data were analysed by performing a two way ANOVA with repeated measures (time×treatment). Planned comparison of means (each versus vehicle) was performed by using a Dunnett's post hoc test, provided that a main effect was detected. For p values less than 0.05, the results were deemed to be statistically significant.

human P2X4 = target: T1, human P2X4 (Homo sapiens, UniProt Q99571); experiment: Human P2X4 HEK Cell FLIPR Assay; assay type: cell-based; conditions: HEK293 stably expressing human P2X4, agonist Bz-ATP 3 μM (EC80)
T1 construct: expressed in transfected cells
T1 sequence (Q99571 1-388): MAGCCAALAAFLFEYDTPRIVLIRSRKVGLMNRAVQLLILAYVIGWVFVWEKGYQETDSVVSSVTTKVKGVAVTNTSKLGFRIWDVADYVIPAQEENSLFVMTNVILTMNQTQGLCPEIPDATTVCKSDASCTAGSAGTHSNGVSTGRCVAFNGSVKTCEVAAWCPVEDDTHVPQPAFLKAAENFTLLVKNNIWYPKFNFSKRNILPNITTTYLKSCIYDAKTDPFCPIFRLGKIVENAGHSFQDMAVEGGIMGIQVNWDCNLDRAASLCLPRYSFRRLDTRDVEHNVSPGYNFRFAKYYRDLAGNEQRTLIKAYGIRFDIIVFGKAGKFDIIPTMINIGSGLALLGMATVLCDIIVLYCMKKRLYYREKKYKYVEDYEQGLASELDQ
Summary of the method: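 Compounds were preincubated 30 min at room temperature on Fluo8-AM-loaded HEK293 cells stably expressing human P2X4. The response was the calcium fluorescence rise on Bz-ATP addition.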

Human P2X4 HEK Cells (FLIPR Assay) avg Efficacy (human P2X4): 95% | IC50 (human P2X4; read-out: Human P2X4 HEK Cells (FLIPR Assay) avg IC50): 411 nM
SMILES: CC(=O)N(c1ccc(F)c(F)c1)c1cc(NC(=O)Cc2ccc(F)cc2Cl)ccn1 [Example 68, N-{4-[2-(2-chloro-4-fluorophenyl)acetamido]pyridin-2-yl}-N-(3,4-difluorophenyl)acetamide]
PWT 2 hour-post drug ([1]; rat CFA, 10 mg/kg BID p.o. during 3 days): 630 gf | PWT 2 hour-post drug ([1]; rat CFA, 30 mg/kg BID p.o. during 3 days): 648 gf | PWT 2 hour-post drug ([1]; rat CFA, 100 mg/kg BID p.o. during 3 days): 759 gf | pain after treatment ([1]; rat CFA, 10, 30 and 100 mg/kg doses BID, 2 hours after last administration): significantly reduced pain | development of inflammatory pain after the injection of CFA ([1]; rat, oral administration BID during 3 days): prevented the development of inflammatory pain
